PubChem BioAssay (NCI)
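Interpolation was linear, between the two tested concentrations surrounding the appropriate level; five concentrations were tested over 48 hours in 96-well plates. Definition used: TGI = concentration required for complete inhibition of growth.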

How the values were obtained:
Assay in all cases: DTP human tumour cell line panel, 48 h
[1] = tested on: MDA-MB-231 breast
[2] = tested on: DU-145 prostate
[3] = tested on: HL-60(TB) leukemia
[4] = tested on: OVCAR-8 ovarian
[5] = tested on: RXF 393 renal
[6] = tested on: HS 578T breast
[7] = tested on: OVCAR-4 ovarian
[8] = tested on: HOP-62 NSCLC
[9] = tested on: M14 melanoma
[10] = tested on: HT29 colon
[11] = tested on: PC-3 prostate
[12] = tested on: UACC-257 melanoma
[13] = tested on: EKVX NSCLC
[14] = tested on: ACHN renal
[15] = tested on: SF-268 CNS
[16] = tested on: SNB-19 CNS
[17] = tested on: A498 renal
[18] = tested on: SF-295 CNS
[19] = tested on: SW-620 colon
[20] = tested on: MDA-N
[21] = tested on: OVCAR-5 ovarian
[22] = tested on: SK-MEL-28 melanoma
[23] = tested on: KM12 colon
[24] = tested on: NCI-H522 lung
[25] = tested on: SK-MEL-2 melanoma
[26] = tested on: MALME-3M melanoma
[27] = tested on: CAKI-1 renal
[28] = tested on: MCF7 breast
[29] = tested on: T-47D breast
[30] = tested on: SK-OV-3 ovarian
[31] = tested on: NCI-H460 lung
[32] = tested on: MOLT-4 leukemia
[33] = tested on: SN12C renal
[34] = tested on: MDA-MB-435
[35] = tested on: HCT-15 colon
[36] = tested on: K-562 leukemia
[37] = tested on: UO-31 renal
[38] = tested on: NCI-H23 lung
[39] = tested on: SNB-75 CNS
[40] = tested on: SR leukemia
[41] = tested on: NCI-H226 lung
[42] = tested on: RPMI-8226 leukemia
[43] = tested on: HOP-92 NSCLC
[44] = tested on: LOX IMVI melanoma
[45] = tested on: NCI/ADR-RES ovarian
[46] = tested on: CCRF-CEM leukemia
[47] = tested on: IGROV1 ovarian
[48] = tested on: SF-539 CNS
[49] = tested on: OVCAR-3 ovarian
[50] = tested on: U251 CNS
[51] = tested on: TK-10 renal
[52] = tested on: SK-MEL-5 melanoma
[53] = tested on: 786-0 renal
[54] = tested on: COLO 205 colon
[55] = tested on: HCC-2998 colon
[56] = tested on: UACC-62 melanoma
[57] = tested on: HCT-116 colon
[58] = tested on: A549 NSCLC
[59] = tested on: BT-549 breast

Measured: TGI

CC1OC2=N[C@@H]1C(=O)N[C@@H](C(C)C)C1=N[C@H](C(=O)N[C@@H](C(C)C)C3=N[C@H](C(=O)N[C@@H](C(C)C)C4=N[C@H](C(=O)N[C@H]2C(C)C)C(C)O4)C(C)O3)C(C)O1 (some centres not stated)
not listed: [56] | [57] | [58] | [59]
> 10 µM: all other assays above

Nc1ncnc2c1ncn2C1CCC(COS(N)(=O)=O)C1 (configuration not stated)
not listed: [17] | [24] | [59]
> 100 µM: all other assays above

COc1ccc(N(C)C(=O)N(C)c2ccc([N+](=O)[O-])cc2)cc1
76.2 µM: [5]
73.3 µM: [51]
91.5 µM: [30]
45.3 µM: [25]
24.2 µM: [20]
96.6 µM: [48]
91.6 µM: [23]
41.3 µM: [6]
68.4 µM: [45]
84.2 µM: [49]
18.6 µM: [34]
not listed: [11] | [18] | [54]
> 100 µM: all other assays above
